Measured values as given in US20120231482A1, “METHOD, KIT OR DIAGNOSTIC FOR THE DETECTION OF REAGENTS WHICH INDUCE ALTERED CONTRACTILITY” (THE JOHNS HOPKINS UNIVERSITY, priority 2009, published 2012).

Columns and labels:
Test in all cases: Modified biotin switch assay, sites of HNO modification
Assay type in all cases: biochemical
α actin = target: T1, α actin (Rattus norvegicus, UniProt P68035); conditions: 25 μM NCA or 500 μM AS
T1 construct: Rat myofibrillar preparations, as described in [7], were obtained from frozen ventricles (Pel Freez Biologicals); tissue Pel Freez Biologicals; host or cells: myofibrils from frozen rat ventricles
Description: (§1) Rat myofibrillar preparations, as described in [7], were obtained from frozen ventricles (Pel Freez Biologicals) minced in 20 volumes/tissue weight of 4° C. relax buffer (SRB (75 mM KCL, 10 mM imidazole pH 7.2, 2 mM MgCl2) plus 4 mM phosphocreatine, 1 mM ATP, 50 mM BDM, 1 mM benzamidine-HCL, 0.1 mM PMSF, 1 μg/ml leupeptin, 1 μg/ml pepstatin, 1% (v/v) Trixon X-100) and adjusted to 10 mM EDTA. Minced preparations were centrifuged for 8 min at 3000xg and the supernant was decanted. Resulting pellets were resuspended in 10 volumes of SRB plus 1% Triton X-100 and subjected to 6 strokes in a Duall tissue homogenizer and centrifuged as above. Pellets were gently resuspended and centrifuged as above twice more in SRB including 1% (v/v) Triton X-100, twice in SRB lacking Triton X-100 and once in K-60 buffer (60 mM KCL, 20 mM MOPS, 2 mM MgCl2 pH 7) before being resuspended in 5 volumes of K-60.
(§2) Detection of HNO modifications by Modified Biotin Switch. HNO modified thiols were detected using a modification to the standard biotin switch protocol. In brief, 100 μg of rat myofibrils/treatment were diluted to 0.5 μg/μl in HEN (250 mM HEPES pH 7.7, 1 mM EDTA and 0.1 mM neocuproine) including 0.1% (w/v) SDS and exposed to a treatment for 10 min at 37° C. which was subsequently removed by acetone precipitation. Remaining free thiols were blocked by addition of 300 μl of HEN including 2.5% (w/v) SDS and 20 mM N-ethylmaleimide (NEM), incubated for 20 min at 50° C. Excess NEM was removed by acetone precipitation. HNO and/or NO modified thiols were reduced using 5 mM DTT or 1 mM ascorbate in 150 μl of HEN including 1% (w/v) SDS and biotinylated with 0.8 mM Biotin-HPDP (Pierce) for one hour at room temperature. Excess biotin-HPDP was removed by acetone precipitation (2 volumes) and resultant pellets were carefully washed with an additional volume of acetone. Biotinylated proteins were resuspended in 1 ml of HEN including 0.1% (w/v) SDS and captured by incubation with 15 μl of washed, packed Ultralink Immobilized Streptavidin (Pierce) for one hour at room temperature. Beads were washed four times in 50 bead volumes of HEN (twice including 0.1% (w/v) SDS, twice including 600 mM NaCl) and twice with EB (20 mM HEPES pH 7.7, 100 mM NaCl, 1 mM EDTA). Captured proteins were eluted with 40 μl of EB containing 100 mM DTT, mixed with 15 μl of 4×LDS sample buffer, boiled, separated by SDS PAGE and silver stained. For MS studies, biotinylated proteins were digested overnight with trypsin (Promega) prior to capture and washed ten additional times with 5 mM ammonium bicarbonate/20% acetonitrile before being eluted in 100 μl of wash buffer including 100 mM DTT as described. Captured peptides were identified using a LTQ linear ion trap tandem mass spectrometer (ThermoFinnigan, Waltham Mass. USA) with data searched against the rat IPI primary sequence database using the sorcerer searching platform (sagen).
(§3) To investigate the modifications that underlie the difference seen in the functional effect of these two compounds we performed an analysis on the myofilament proteins, using a modified biotin-switch method, followed by mass spectrometry for identification (FIG. 3). Following treatment with HNO or control compounds, unmodified cysteines are blocked with NEM before treatment with a reducing agent and labeling the exposed cysteines with a biotin group (FIG. 3A). In this case, 5 mM DTT was used as the reducing agent because it was shown in the physiological studies to reverse the effect of the treatment. […] Tryptic or chymotryptic peptides containing the modified cysteine residues were captured and identified by LC/MS/MS. […] To parse the role of candidate sites of modification between these two effects a comparative proteomics experiment was designed where modifications specific to NCA treatment would be considered candidates for the Ca^2+ effect while sites identified in common between AS and NCA could be candidates for the force effect (FIG. 3C). […]

troponin C (cardiac) = target: T2, troponin C (cardiac) (Rattus norvegicus, UniProt Q4PP99); conditions: for number of independent observations of peptide: Cys 35, tryptic peptide AAFDIFVLGAEDGCISTK, 25 μM NCA or 500 μM AS; for Position of modified Cys: troponin C, Table 2
T2 construct: Rat myofibrillar preparations, as described in [7], were obtained from frozen ventricles (Pel Freez Biologicals); tissue Pel Freez Biologicals; host or cells: myofibrils from frozen rat ventricles
Description: as §1, §2, §3

myosin light chain 1 = target: T3, myosin light chain 1 (Rattus norvegicus, UniProt P16409); conditions: for number of independent observations of peptide: Cys 81, tryptic peptide ITYGQCGDVLR, 25 μM NCA or 500 μM AS; for Position of modified Cys: myosin light chain 1, Table 2
T3 construct: Rat myofibrillar preparations, as described in [7], were obtained from frozen ventricles (Pel Freez Biologicals); tissue Pel Freez Biologicals; host or cells: myofibrils from frozen rat ventricles
Description: as §1, §2, §3

myosin heavy chain α = target: T4, myosin heavy chain α (Rattus norvegicus, UniProt P02563); conditions: for number of independent observations of peptide: Cys 37, 25 μM NCA or 500 μM AS; for Position of modified Cys: myosin heavy chain (α), Table 2
T4 construct: Rat myofibrillar preparations, as described in [7], were obtained from frozen ventricles (Pel Freez Biologicals); tissue Pel Freez Biologicals; host or cells: myofibrils from frozen rat ventricles
Description: as §1, §2, §3

myson binding protein C = target: T5, myson binding protein C (Rattus norvegicus, UniProt P56741); conditions: for number of independent observations of peptide: Cys 475, 25 μM NCA or 500 μM AS; for Position of modified Cys: myosin binding protein C, Table 2
T5 construct: Rat myofibrillar preparations, as described in [7], were obtained from frozen ventricles (Pel Freez Biologicals); tissue Pel Freez Biologicals; host or cells: myofibrils from frozen rat ventricles
Description: as §1, §2, §3

[1] = Cys 12, tryptic peptide DDEETTALVCDNGSLVK
[2] = Cys 219, tryptic peptide LCYVALDFENEMATAASSSLEK

T5 sequence (P56741 whole entry): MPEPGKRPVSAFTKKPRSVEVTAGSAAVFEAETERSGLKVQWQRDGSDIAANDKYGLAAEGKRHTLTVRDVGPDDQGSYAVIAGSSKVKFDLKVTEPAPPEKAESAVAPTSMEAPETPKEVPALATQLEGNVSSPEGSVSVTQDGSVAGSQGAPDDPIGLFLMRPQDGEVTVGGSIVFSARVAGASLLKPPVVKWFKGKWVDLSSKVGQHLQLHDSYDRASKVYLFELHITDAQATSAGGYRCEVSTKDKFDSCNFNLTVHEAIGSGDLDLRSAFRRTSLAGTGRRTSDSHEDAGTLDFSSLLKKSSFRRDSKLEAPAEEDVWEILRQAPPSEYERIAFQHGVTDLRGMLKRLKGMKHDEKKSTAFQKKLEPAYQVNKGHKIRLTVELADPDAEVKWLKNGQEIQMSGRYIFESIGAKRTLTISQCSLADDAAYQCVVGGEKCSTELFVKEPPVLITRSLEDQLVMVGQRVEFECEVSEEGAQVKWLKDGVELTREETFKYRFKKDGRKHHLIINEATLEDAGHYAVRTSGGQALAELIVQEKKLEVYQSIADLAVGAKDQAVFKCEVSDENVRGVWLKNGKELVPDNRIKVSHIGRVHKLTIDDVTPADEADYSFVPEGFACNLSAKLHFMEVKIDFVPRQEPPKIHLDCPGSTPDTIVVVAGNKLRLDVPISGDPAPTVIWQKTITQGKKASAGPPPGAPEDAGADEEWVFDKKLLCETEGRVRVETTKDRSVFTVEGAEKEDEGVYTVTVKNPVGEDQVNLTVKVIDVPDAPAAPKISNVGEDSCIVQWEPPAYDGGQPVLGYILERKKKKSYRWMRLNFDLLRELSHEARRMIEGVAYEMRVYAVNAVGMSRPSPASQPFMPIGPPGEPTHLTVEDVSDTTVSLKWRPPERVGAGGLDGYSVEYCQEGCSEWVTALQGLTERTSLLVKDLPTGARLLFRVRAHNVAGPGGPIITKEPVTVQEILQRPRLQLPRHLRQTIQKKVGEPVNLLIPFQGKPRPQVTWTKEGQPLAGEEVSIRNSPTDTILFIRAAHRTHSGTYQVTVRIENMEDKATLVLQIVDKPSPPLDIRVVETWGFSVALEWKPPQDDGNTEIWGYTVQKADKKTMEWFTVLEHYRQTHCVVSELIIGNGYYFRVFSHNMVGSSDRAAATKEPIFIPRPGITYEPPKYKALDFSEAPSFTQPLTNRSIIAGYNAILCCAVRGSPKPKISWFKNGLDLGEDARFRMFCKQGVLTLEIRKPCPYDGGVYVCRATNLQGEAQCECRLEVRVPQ
T4 sequence (P02563 whole entry): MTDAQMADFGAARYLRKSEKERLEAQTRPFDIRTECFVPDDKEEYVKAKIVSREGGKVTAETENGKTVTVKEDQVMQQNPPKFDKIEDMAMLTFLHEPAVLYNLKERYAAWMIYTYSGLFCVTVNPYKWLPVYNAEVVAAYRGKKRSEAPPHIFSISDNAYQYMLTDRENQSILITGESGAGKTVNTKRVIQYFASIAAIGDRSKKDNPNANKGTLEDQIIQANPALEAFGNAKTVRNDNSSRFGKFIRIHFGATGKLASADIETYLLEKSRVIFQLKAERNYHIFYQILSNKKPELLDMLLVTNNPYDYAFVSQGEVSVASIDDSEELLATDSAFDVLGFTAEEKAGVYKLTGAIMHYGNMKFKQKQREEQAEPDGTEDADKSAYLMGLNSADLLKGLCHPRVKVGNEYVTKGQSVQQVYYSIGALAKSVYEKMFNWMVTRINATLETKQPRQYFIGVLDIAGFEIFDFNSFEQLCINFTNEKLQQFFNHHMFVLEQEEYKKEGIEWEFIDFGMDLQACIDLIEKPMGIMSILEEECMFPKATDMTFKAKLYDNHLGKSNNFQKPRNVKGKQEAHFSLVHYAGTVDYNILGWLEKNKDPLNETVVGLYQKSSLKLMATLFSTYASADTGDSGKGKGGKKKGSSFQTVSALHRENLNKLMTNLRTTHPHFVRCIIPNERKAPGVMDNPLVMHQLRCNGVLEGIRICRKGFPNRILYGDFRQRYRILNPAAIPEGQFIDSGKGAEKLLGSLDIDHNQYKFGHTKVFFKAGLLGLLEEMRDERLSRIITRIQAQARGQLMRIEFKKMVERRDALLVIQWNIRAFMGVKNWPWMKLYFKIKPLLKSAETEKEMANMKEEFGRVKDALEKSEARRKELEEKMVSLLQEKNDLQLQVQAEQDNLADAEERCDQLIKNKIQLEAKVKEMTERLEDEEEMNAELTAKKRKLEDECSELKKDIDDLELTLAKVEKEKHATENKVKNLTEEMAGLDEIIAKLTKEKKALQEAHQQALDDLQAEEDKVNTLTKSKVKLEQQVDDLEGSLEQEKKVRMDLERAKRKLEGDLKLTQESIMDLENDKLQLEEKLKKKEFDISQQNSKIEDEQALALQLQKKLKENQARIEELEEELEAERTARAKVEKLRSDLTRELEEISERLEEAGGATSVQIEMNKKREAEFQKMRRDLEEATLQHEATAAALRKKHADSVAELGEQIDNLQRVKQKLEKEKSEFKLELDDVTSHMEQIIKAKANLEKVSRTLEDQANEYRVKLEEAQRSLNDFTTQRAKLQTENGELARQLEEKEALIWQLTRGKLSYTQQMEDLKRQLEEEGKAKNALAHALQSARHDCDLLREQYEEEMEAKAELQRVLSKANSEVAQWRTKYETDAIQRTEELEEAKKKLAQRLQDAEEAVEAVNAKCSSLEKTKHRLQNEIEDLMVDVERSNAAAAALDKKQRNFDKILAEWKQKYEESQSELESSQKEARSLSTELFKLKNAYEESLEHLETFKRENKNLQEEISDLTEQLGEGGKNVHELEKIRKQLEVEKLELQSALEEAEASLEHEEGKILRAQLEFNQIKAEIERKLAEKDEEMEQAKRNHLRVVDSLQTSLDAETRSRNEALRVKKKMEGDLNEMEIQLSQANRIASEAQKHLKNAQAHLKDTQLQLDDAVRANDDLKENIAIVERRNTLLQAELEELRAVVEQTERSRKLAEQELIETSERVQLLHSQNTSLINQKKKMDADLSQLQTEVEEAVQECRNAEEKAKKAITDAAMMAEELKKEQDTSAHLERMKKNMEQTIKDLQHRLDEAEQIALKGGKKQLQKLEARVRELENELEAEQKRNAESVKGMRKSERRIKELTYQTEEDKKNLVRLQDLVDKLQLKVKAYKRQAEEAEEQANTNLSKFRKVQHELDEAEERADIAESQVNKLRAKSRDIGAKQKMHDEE
T3 sequence (P16409 whole entry): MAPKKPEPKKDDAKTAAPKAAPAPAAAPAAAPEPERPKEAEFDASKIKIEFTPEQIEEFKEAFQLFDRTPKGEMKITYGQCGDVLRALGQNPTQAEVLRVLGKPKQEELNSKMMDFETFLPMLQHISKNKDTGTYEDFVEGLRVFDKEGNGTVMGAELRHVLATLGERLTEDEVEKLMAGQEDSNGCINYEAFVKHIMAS

## CC(=O)OC1(N=O)CCCCC1 [NCA, 1-nitrosocyclohexylacetate]
α actin; [1]
  number of independent observations of peptide: 3
α actin; [2]
  number of independent observations of peptide: 1
α actin; Cys 257, chymotryptic peptide RCPETLFQPSF
  number of independent observations of peptide: 1
Troponin C (cardiac)
  number of independent observations of peptide: 2
  Position of modified Cys: 35
Myosin light chain 1
  number of independent observations of peptide: 2
  Position of modified Cys: 81
Myosin heavy chain α; tryptic peptide TECFVPDDKEEYVK
  number of independent observations of peptide: 3
Myosin heavy chain α
  Position of modified Cys: 37(α)
Myson binding protein C; tryptic peptide VEFECEVSEEGAQVK
  number of independent observations of peptide: 1
Myson binding protein C
  Position of modified Cys: 475

## [Na+].[Na+].[O-][N+]([O-])=NO [AS, Angeli's Salt]
α actin; Cys 12, chymotryptic peptide VCDNGSLVKAGF
  number of independent observations of peptide: 2
α actin; [1]
  number of independent observations of peptide: 3
α actin; [2]
  number of independent observations of peptide: 1
Troponin C (cardiac)
  number of independent observations of peptide: 2
  Position of modified Cys: 35
Myosin light chain 1
  number of independent observations of peptide: 2
  Position of modified Cys: 81
Myosin heavy chain α; chymotryptic peptide DIRTECFVPDDKEEY
  number of independent observations of peptide: 3
Myosin heavy chain α; tryptic peptide TECFVPDDKEEYVK
  number of independent observations of peptide: 3
Myosin heavy chain α
  Position of modified Cys: 37(α)
Myson binding protein C; chymotryptic peptide ECEVSEEGAQVKW
  number of independent observations of peptide: 2
Myson binding protein C
  Position of modified Cys: 475
